In data set [1] the test system is B16-Ova tumors. Description: Flank B16-Ova tumors in mice: tumor size, survival, re-challenge. The data set is classed as in vivo, C57BL/6J WT mice. As to conditions: intratumoral injection alone, three weekly doses. On the procedure:
Cross-sectional area of tumors was measured in mm^2 using calipers every 2-3 days. In tumor re-challenge experiments, naive mice controls or mice who had complete tumor regression and remained tumor free for at least 60 days were subcutaneously injected in the left flank (contra-lateral to the initial tumor) with 0.1×10^6 B16-Ova cells, and tumor development was monitored for another 60 days.

The next data set deals with BMDCs. Kind of data set: Viability of BMDCs upon exposure to etoposide.
Data set [2] concerns B16-Ova tumors. Description: Immunophenotyping of intra-tumoral DC by flow cytometry. Format: in vivo, mice. The conditions noted are these: combined with checkpoint blockade; after 2 doses of vaccine or etoposide and 3 doses of checkpoint blockade. How it is done:
Phenotypic characterization of immune cell populations was performed by flow cytometry. Briefly, tumors were harvested and mashed through a […] filter. Collected cells were washed in FACS buffer (PBS containing 5 mM EDTA and 1% BSA), resuspended, and counted. Five million cells from each sample were stained with fluorophore-conjugated antibodies on ice for 30 min, co-stained with Aqua, washed, resuspended in 450 μl, supplemented with 50 μl of CountBright absolute counting beads, and analyzed on a BD LSR Fortessa flow cytometer. DCs were scored as CD45+Ly6CCD24+MHCII+F480−(CD11b+ or CD103+) cells using the gating strategy described in Broz M L, et al., Cancer Cell, 8; 26(6):938 (2014).
To test whether the efficacy of the tumor cell vaccine and checkpoint combination treatment for an anti-tumor immune response depends on DCs that can cross-present tumor antigens, the numbers of CD11b^+C103^−DC2 cells and CD11b^−CD103^+DC1 cells were enumerated by immunophenotyping and flow cytometry. […] As before, mice bearing flank B16-Ova tumors were treated with saline or the tumor cell vaccine intra-tumorally, in the presence or absence of systemic checkpoint blockade (FIG. 5A), and analyzed. […]
(In flow cytometry, cells or beads pass a laser one at a time.)

Data set [3] concerns B16-Ova tumors. Description: Circulating H2-Kb/[…]-tetramer positive CD8+ T-cells in mice bearing B16-Ova tumors. Format: in vivo, C57BL/6J WT mice. The conditions noted are these: bled after the second intra-tumoral dose. How it is done:
Briefly, 50 μl of whole blood was collected by retro-orbital bleeding, centrifuged at 250×g for 5 min, followed by 3 rounds of RBC lysis in 200 ul of ACK buffer. Cells were then washed once in Tetramer stain buffer (PBS containing 5 mM EDTA, 1% BSA and 50 nM Dasatinib), and stained with PE-conjugated Tetramer for 40 min at RT, followed by co-staining with anti-CD8 for 10 min at 4° C. Cells were then stained with DAPI, washed and re-suspended in tetramer stain buffer for flow cytometry analysis.

The next data set has as its system B16-Ova cells. Description: In vitro cross presentation assay: drug-treated B16-Ova cells, BMDC and OT-1 CD8+ T-cells, IFN-γ+ T-cells by flow cytometry. The conditions noted are these: for inducing the appearance of IFNγ+OT-1 CD8+ T-cells: 50 μM etoposide or 10 μM mitoxantrone; for reduction of the percentage of IFNg+ T-cells by siRNA knockdown of calreticulin: compared to siRNA controls. Format: cell-based, mouse. Further details: reduction of the percentage of IFNg+ T-cells by siRNA knockdown of calreticulin / reduction of T-cell IFN-γ responses / frequency of IFN-γ+ T-cells: concentration or dose not given beside the values. On the procedure: B16-Ova or MC-38 Ova cells were treated with various doses of chemotherapeutic drugs for 24 h followed by extensive washing in IMDM (10% FBS, P/S). Subsequently 1×10^6 treated cells were co-cultured with 2.5×10^5 BMDC per well of a 24-well plate for each condition tested. After 24 hours of co-culture, supernatants were removed from each well and the BMDC washed 2-3 times in T-cell media (RPMI containing 10% FBS, 20 mM HEPES, 1 mM sodium pyruvate, 55 uM b-mercaptoethanol, 2 mM L-glutamine, nonessential amino acids and antibiotics). CD8+OT-I T-cells isolated from spleens of OT-I mice were then co-cultured with the BMDC at 125,000 T-cells per well to achieve an effector to target ratio of 0.5. Where indicated, BMDC and/or T-cells were also exposed to chemotherapy drugs. After a 12-15 h incubation, IFN-g producing T-cells were identified and quantified by intra-cellular cytokine staining and flow cytometry using a BD LSR II or Fortessa flow cytometer. Cells were first gated for CD3 expression, then re-gated for CD8 and IFNg expression.
An experimental system was developed to assess dendritic cell-mediated T-cell priming using the B16-Ova cells, in combination with primary bone-marrow derived dendritic cells (BMDC) and OT-I CD8+ T-cells expressing a TCR transgene that specifically recognizes the Ova-derived peptide […] (SEQ ID NO:1) in the context of H2-Kb (OT-1) (Clarke, et al., Immunol Cell Biol., 78(2):110-7 (2000); Hogquist, et al., Cell, 76(1):17-27 (1994)). […] The treated B16-Ova cells/BMDC co-culture was then incubated with purified CD8+ T-cells obtained from the spleens of OT-1 mice, and the appearance of IFNg+CD8 T-cells was measured 12-15 hours later by intracellular staining and subsequent quantification using flow cytometry.

Where [4] appears, read: B16-Ova cells treated with 10 uM for 24 h.
The mark [5] stands for this setting: B16-Ova cells treated with 50 uM for 24 h.

2 compounds from patent publication US20210154281A1, “CELL-BASED CANCER VACCINES AND CANCER THERAPIES” (Massachusetts Institute of Technology, priority 2019, published 2021) can be followed below.

On to `COc1cc([C@@H]2c3cc4c(cc3[C@@H](O[C@@H]3O[C@@H]5CO[C@@H](C)O[C@H]5[C@H](O)[C@H]3O)[C@H]3COC(=O)[C@H]23)OCO4)cc(OC)c1O` [Etop, etoposide], for which, in the data set on B16-Ova tumors [1], the tumor growth result is “no effect on tumor growth”. For the same compound, in the data set on BMDCs, the “viability of BMDCs” value is on record as “significantly reduced”. Besides, in the data set on B16-Ova tumors [2], the “number of CD103+DC1 in tumors” value is listed as “did not enhance numbers of CD103+DC1”. For the same compound, the “H2-Kb-SIINFEKL (SEQ ID NO: 1)-specific T-cells (%) MEAN” value in the data set with B16-Ova tumors [3] worked out at 0.29%. In addition, the “inducing the appearance of IFNγ+OT-1 CD8+ T-cells” value with B16-Ova cells is “highly effective”. Further, the “% CD3+CD8+IFN-γ+ T-cells MEAN” value with B16-Ova cells (setting [4]) is 0.86%; with B16-Ova cells (setting [5]), 4.80%; with B16-Ova cells (Table 7 experiment, 50 uM alone), 4.11%; in the data set on B16-Ova cells (Table 10 experiment, Etop 50 uM alone), 22.90%; in the data set with B16-Ova cells (siCalR (calreticulin knockdown) B16-Ova cells, 50 uM), 2.71%; with B16-Ova cells (siCtrl (control siRNA) B16-Ova cells, 50 uM) it was 5.25%. The “appearance of IFN-γ+ CD8+ T-cells” value in the data set on B16-Ova cells (co-exposure of both BMDCs and tumor cells, compared to exposure of B16-Ova cells alone) is reported as “significantly reduced the appearance of IFN-γ+ CD8+ T-cells”. Moreover, the “reduction of the percentage of IFNg+ T-cells by siRNA knockdown of calreticulin” value in the data set with B16-Ova cells is listed as approximately 50%. Besides, in the data set with B16-Ova cells (increasing doses from 0 to 100 uM), the “magnitude of IFN-γ responses in T-cells” value is listed as “corresponding increase in the magnitude of IFN-γ responses”. In addition, the “tumor-directed T-cells relative to the level when exposure is limited to the tumor cells alone” value in the data set on B16-Ova cells (triple co-exposure of tumor cells, BMDCs and T-cells) was “less than 10%”.
As for `O=C1c2c(O)ccc(O)c2C(=O)c2c(NCCNCCO)ccc(NCCNCCO)c21` [Mito, mitoxantrone], the “IFN-γ responses in T-cells” value with B16-Ova cells (5 uM) is “maximum IFN-γ responses”; in the data set on B16-Ova cells (10 uM) it was “lower IFN-γ response”; with B16-Ova cells (25 uM and higher doses), “undetectable”. Further, the “inducing the appearance of IFNγ+OT-1 CD8+ T-cells” value in the data set with B16-Ova cells is “highly effective”. Besides, the “% CD3+CD8+IFN-γ+ T-cells MEAN” value with B16-Ova cells (setting [4]) was determined as 5.57%; with B16-Ova cells (setting [5]), 0.44%; with B16-Ova cells (Table 7 experiment, 10 uM alone) it was 3.98%; in the data set on B16-Ova cells (siCalR (calreticulin knockdown) B16-Ova cells, 10 uM), 1.10%; in the data set with B16-Ova cells (siCtrl (control siRNA) B16-Ova cells, 10 uM) it was 4.63%. Besides, the “reduction of the percentage of IFNg+ T-cells by siRNA knockdown of calreticulin” value in the data set on B16-Ova cells was approximately 80%.
